From patent publication US20250320227A1, “MACROCYCLIC OREXIN RECEPTOR AGONISTS AND USES THEREOF” (Jazz Pharmaceuticals Ireland Limited, priority 2022, published 2025)

The compounds below were run against T1, human recombinant OX2 (hOX2) receptors expressed in CHO cells (Homo sapiens, UniProt O43614) (assay: IP-1 accumulation assay (IP-One HTRF) in hOX2-CHO cells). Conditions: 60 min incubation at 37° C., mean of at least two independent experiments, read-out: EC50_OX2R Category.
T1 construct: host or cells: CHO cells (hOX2-CHO)
T1 sequence (O43614 1-444): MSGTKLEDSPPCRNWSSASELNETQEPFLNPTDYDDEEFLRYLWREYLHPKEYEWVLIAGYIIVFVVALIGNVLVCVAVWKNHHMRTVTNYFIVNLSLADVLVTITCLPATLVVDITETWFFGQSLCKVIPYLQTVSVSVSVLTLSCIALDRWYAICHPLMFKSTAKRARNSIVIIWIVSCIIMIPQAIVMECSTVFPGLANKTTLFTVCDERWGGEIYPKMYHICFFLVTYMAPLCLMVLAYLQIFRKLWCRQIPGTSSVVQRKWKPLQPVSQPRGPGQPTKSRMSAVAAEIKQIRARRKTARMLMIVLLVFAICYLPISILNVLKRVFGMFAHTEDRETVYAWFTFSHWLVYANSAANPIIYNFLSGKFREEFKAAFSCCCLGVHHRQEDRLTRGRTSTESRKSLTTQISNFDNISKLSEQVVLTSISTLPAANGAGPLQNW
Assay type: cell-based
Experimental: The accumulation of Inositol-1 Monophosphate (IP-1) was measured using IP-One HTRF® Terbium cryptate based assay (Cisbio) in human recombinant OX1 (hOX1) and at OX2 (hOX2) receptors expressed in CHO cells (DiscoverX) according to the manufacturer's instructions for cells tested in suspension.
hOX1-CHO and hOX2-CHO cells were seeded into white 384-well plates at a density of 20,000 cells/well in Hank's Balanced Salt Solution (HBSS) containing 20 mM HEPES pH 7.4, 50 mM, LiCl and 0.1% and Bovine Serum Albumin (BSA).
Compounds of disclosure were tested in an 11 points concentration response curve (CRC) serially diluted in neat DMSO at 200 fold concentrations and added by Echo acoustic liquid handling (Labcyte) to the cells (0.5% DMSO final in the assay). After 60 min of incubation at 37° C. detection reagents, IP1-d2 tracer and anti-IP1-cryptate were diluted in lysis buffer according to the manufacturer's descriptions and added to the cells.
Following 60 min incubation at room temperature, time-resolved fluorescence (HTRF) was measured at 615 nm and 665 nm by Envision Multilabel reader (Perkin Elmer) and the HTRF ratio (A665/A615×10^4) was calculated.
The IP-1 accumulation response was expressed as percentage of the maximal OX-A response.
Curve fitting and EC50 estimations were carried out using a four-parameter logistic model using XLfit Software. Mean data of EC50 are calculated from at least two independent experiments performed in duplicates
With O=C1COc2ccccc2[C@H]2CC[C@H](CC2)OC[C@@H]2N1CCC[C@@]21CO[C@](F)(C(F)(F)F)C(=O)N1 (relative stereo) [Example 71a, rel-(1′s,3S,16′R,19′s)-6 (R)-fluoro-6-(trifluoromethyl)-8′,18′-dioxa-11′-azaspiro[morpholine-3,15′-tetracyclo[17.2.2.0^2,70.0^11,16]tricosane]-2′(7′),3′,5′-triene-5,10′-dione] the EC50 was less than 100 nM. For CC1Oc2ccccc2[C@H]2CC[C@H](CC2)OC[C@@H]2N(CCC[C@@]23COCC(=O)N3)C1=O (single isomer, unassigned) [Example 35a], the EC50 was less than 100 nM. In the case of O=C1CCC[C@]2(CCCN3C(=O)COc4ccccc4[C@H]4CC[C@H](CC4)OC[C@@H]32)N1 (single isomer, unassigned) [Example 58b], the EC50 is reported as greater than 10000 nM. With O=C1COC[C@@]2(CCCN3C(=O)OCCOc4cccc(c4)[C@H]4CC[C@H](CC4)OC[C@H]32)N1 (single isomer, unassigned) [Example 53a] the EC50 was less than 100 nM. In the case of C[C@@H]1CC(=O)N2CC[C@@]3(COCC(=O)N3)[C@@H]2CO[C@H]2CC[C@H](CC2)c2ccccc2O1 (single isomer, unassigned) [Example 4c], the EC50 is reported as 100 to 1000 nM. Compound O=C1COC[C@]2(CCCN3C(=O)CCCCOc4cccc(n4)[C@H]4CC[C@H](CC4)OC[C@@H]32)N1 (single isomer, unassigned) [Example 76a] has an EC50 greater than 10000 nM. Work on O=C1COC[C@@]2(CCN3C(=O)CCOc4cccc(F)c4[C@H]4CC[C@H](CC4)OC[C@H]32)N1 (single isomer, unassigned) [Example 10a] yielded an EC50 of less than 100 nM. With O=C1COCC2(CCN3C(=O)CCOc4c(F)cc(F)cc4[C@H]4CC[C@H](CC4)OCC32)N1 (mixture of isomers) [Example 11, Rel-(1′s,3S,16′R,19′s)-4′,6′-difluoro-8′,18′-dioxa-12′-azaspiro[morpholine-3,15′-tetracyclo[17.2.2.0^2,70.0^12,16]tricosane]-2′(7′),3′,5′-triene-5,11′-dione] the EC50 was 100 to 1000 nM. Work on C[C@@H]1C[C@]2(COCC(=O)N2)[C@H]2CO[C@H]3CC[C@H](CC3)c3c(F)cccc3OCC(=O)N12 (single isomer, unassigned) [Example 17b] yielded an EC50 of 1000 to 10000 nM. O=C1COC[C@]2(CCCN3C(=O)COc4c(F)ccc(F)c4[C@H]4CC[C@H](CC4)OC[C@@H]32)N1 (single isomer, unassigned) [Example 44b] showed an EC50 greater than 10000 nM. Work on Cc1cccc2c1[C@H]1CC[C@H](CC1)OCC1N(CCCC13COCC(=O)N3)C(=O)CO2 (stereo partly drawn) [Example 47, Rel-(1′s,3S,16′R,19′s)-3′-methyl-8′,18′-dioxa-11′-azaspiro[morpholine-3,15′-tetracyclo[17.2.2. 0^2,^7.0^11,^16]tricosane]-2′(7′),3′,5′-triene-5,10′-dione] yielded an EC50 of less than 100 nM. With O=C1COc2ccccc2[C@H]2CC[C@H](CC2)OC[C@@H]2N1CCC[C@@]21CCCS(=O)(=O)N1 (single isomer, unassigned) [Example 59a] the EC50 was less than 100 nM. In the case of O=C1CCC2(CCCN3C(=O)COc4ccccc4[C@H]4CC[C@H](CC4)OCC32)N1 (mixture of isomers) [Example 69, Rel-(1′s,2R,16′R,19′s)-8′,18′-dioxa-11′-azaspiro[pyrrolidine-2,15′-tetracyclo-[17.2.2.0^2,70.0^11,16]tricosane]-2′(7′),3′,5′-triene-5,10′-dione], the EC50 is reported as 100 to 1000 nM. Compound O=C1COC[C@]2(CCCN3C(=O)CCOc4c(F)cc(F)cc4[C@H]4CC[C@H](CC4)OC[C@@H]32)N1 (single isomer, unassigned) [Example 50b] has an EC50 of 100 to 1000 nM. Compound CC1CC(=O)N2CCC3(COCC(=O)N3)C2CO[C@H]2CC[C@H](CC2)c2ccccc2O1 (relative stereo) [Example 4, rel-(1′s,3S,16′R,19′s)-9′-methyl-8′,18′-dioxa-12′-azaspiro[morpholine-3,15′-tetracyclo[17.2.2.0^2,70.0^12,16]tricosane]-2′(7′),3′,5′-triene-5,11′-dione] has an EC50 of 100 to 1000 nM. With O=C1COC[C@]2(CCCN3C(=O)OCCCOc4cccc(c4)[C@H]4CC[C@H](CC4)OC[C@@H]32)N1 (single isomer, unassigned) [Example 54b] the EC50 was 1000 to 10000 nM. With O=C1COC[C@@]2(CCCN3C(=O)CCOc4ccccc4[C@H]4CC[C@H](CC4)OC[C@H]32)N1 (single isomer, unassigned) [Example 33a] the EC50 was less than 100 nM. With O=C1COC[C@@]2(CCN3C(=O)C4(CC4)COc4cccc(F)c4[C@H]4CC[C@H](CC4)OC[C@H]32)N1 (single isomer, unassigned) [Example 73b, (1′s,15′S,16′R,19′s)-3′-fluorodispiro [cyclopropane-1,10′-[8,18]dioxa-[12]azatetracyclo [17.2.2.0^2,^7.0^12,^16]tricosane-15′,3″- morpholine]-2′,4′,6′-triene-5″,11′-dione] the EC50 was greater than 10000 nM. O=C1COCC2(CCN3C(=O)CCOc4cccc(F)c4[C@H]4CC[C@H](CC4)OCC32)N1 (mixture of isomers) [Example 10, Rel-(1′s,3S,16′R,19′s)-3′-fluoro-8′,18′-dioxa-12′-azaspiro[morpholine-3,15′-tetracyclo[17.2.2.0^2,70.0^12,16]tricosane]-2′(7′),3′,5′-triene-5,11′-dione] showed an EC50 of less than 100 nM. O=C1COC[C@]2(CCCN3C(=O)COc4ccc(F)c(F)c4[C@H]4CC[C@H](CC4)OC[C@@H]32)N1 (single isomer, unassigned) [Example 43b] was tested, and the EC50 was greater than 10000 nM. For C[C@@H]1C[C@@]2(COCC(=O)N2)[C@@H]2CO[C@H]3CC[C@H](CC3)c3ccccc3OCCC(=O)N12 (single isomer, unassigned) [Example 13a], the EC50 was less than 100 nM. Compound O=C1COCC2(CCN3C(=O)CC(C(F)(F)F)Oc4ccccc4[C@H]4CC[C@H](CC4)OCC32)N1 (relative stereo) [Example 6, rel-(1′s,3S,16′R,19′s)-9′-(trifluoromethyl)-8′,18′-dioxa-12′-azaspiro[morpholine-3,15′-tetracyclo[17.2.2.0^2,70.0^12,16]tricosane]-2′(7′),3′,5′-triene-5,11′-dione] has an EC50 of 1000 to 10000 nM. C[C@H]1COc2ccccc2[C@H]2CC[C@H](CC2)OC[C@H]2N(CC[C@]23COCC(=O)N3)C1=O (single isomer, unassigned) [Example 5b] gave an EC50 greater than 10000 nM. In the case of C[C@@H]1C[C@@]2(COCC(=O)N2)[C@@H]2CO[C@H]3CC[C@H](CC3)c3cc(F)cc(F)c3OCC(=O)N12 (single isomer, unassigned) [Example 16a], the EC50 is reported as less than 100 nM. O=C1COC[C@@]2(CCCN3C(=O)COc4nccc(F)c4[C@H]4CC[C@H](CC4)OC[C@H]32)N1 (single isomer, unassigned) [Example 46a] was tested, and the EC50 was less than 100 nM. In the case of O=C1COC[C@]2(CCCN3C(=O)COc4c(F)cccc4[C@H]4CC[C@H](CC4)OC[C@@H]32)N1 (single isomer, unassigned) [Example 38b], the EC50 is reported as 1000 to 10000 nM. For CN1CCOc2ccccc2-c2cccc(c2F)CC2N(CCCC23COCC(=O)N3)C1=O (racemic) [Example 63, Rel-(3S,18′S)-24′-fluoro-11′-methyl-8′-oxa-11′,13′-diazaspiro[morpholine-3,17′-tetracyclo[18.3.1.0^2,70.0^13,18]tetracosane]-1′(24′),2′(7′),3′,5′,20′,22′-hexaene-5,12′-dione], the EC50 was 1000 to 10000 nM.
